Test results published in patent US7713994B2 (Wyeth LLC, priority 2005, dated 2010).

How the values were obtained:
cyclin D1/cdk 4 enzyme = target: T1, cyclin D1/cdk 4 enzyme (Homo sapiens, UniProt P11802); test: CDK4 ELISA kinase assay (phospho-Rb ser 795 detection); format: biochemical; settings: In Vitro Enzyme Assay, cyclin D1/cdk 4, read-out: CDK4 IC50
T1 construct: made in house; host or cells: Sf9 insect cells, recombinant baculovirus
Procedure, shortened: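 Wells were coated overnight with GST-Rb C-terminal fragment, then blocked. Compound (10 ug/ml final) and cyclin/CDK enzyme from baculovirus-infected Sf9 cells with 200 μM ATP reacted 1 h at 30° C. Ser795 phosphorylation was detected by ELISA at 450 nm.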

BT474 = test: Cytotoxicity assay (SRB), BT474; format: cell-based; settings: Homo sapiens, BT-474, 144 h, BT474 cells, 6 days, SRB; read-out: In Vitro Cellular Activity IC50 BT474
Protocol: (§1) BT474, HCT-116, LoVo and MCF-7 were maintained under 7% CO2 in RPMI 1640 medium supplemented with 10% fetal bovine serum and 50 µg/ml gentamicin.
(§2) Cells were plated in 96-well microtiter dishes (12000 cells/well for BT474, 4000 cells/well for HCT-116, 6000 cells/well for LoVo and 6000 cells/well for MCF-7) in RPMI 1640 medium containing 5% fetal bovine serum and 50 µg/ml gentamicin. The cells were allowed to incubate overnight at 37° C., 7% CO2. Compound dilutions were prepared using the same medium. HCT-116, LoVo and MCF-7 cells were cultured for three days and BT474 cells were cultured for 6 days, in the presence of each compound dilution. Untreated cells were included as controls. The percentage of surviving cells was determined using a protein binding dye (sulforhodamineB, SRB) assay. Cellular protein was precipitated in each well by the addition of 0.05 ml of 50% cold trichloroacetic acid (TCA). After 1 hour, the plates were washed extensively in dH2O and dried. The sulforhodamineB dye solution (0.08 mL of 0.4% SRB in 1% acetic acid) was added to each well, kept at room temperature for ten minutes, then washed in 1% acetic acid and dried. The dye was dissolved in 10 mM Tris-HCl (150 uL) and the absorbency read at 540 nm.

HCT-116 = test: Cytotoxicity assay (SRB), HCT-116; format: cell-based; settings: Homo sapiens, HCT-116, 72 h, HCT116 cells, 3 days, SRB; read-out: In Vitro Cellular Activity IC50 HCT116
Protocol: as §1, §2

LoVo = test: Cytotoxicity assay (SRB), LoVo; format: cell-based; settings: Homo sapiens, LoVo, 72 h, LoVo cells, 3 days, SRB; read-out: In Vitro Cellular Activity IC50 LOVO
Protocol: as §1, §2

MCF-7 = test: Cytotoxicity assay (SRB), MCF-7; format: cell-based; settings: Homo sapiens, MCF7, 72 h, MCF-7 cells, 3 days, SRB; read-out: In Vitro Cellular Activity IC50 MCF-7
Protocol: as §1, §2

T1 sequence (P11802 whole entry, species assumed): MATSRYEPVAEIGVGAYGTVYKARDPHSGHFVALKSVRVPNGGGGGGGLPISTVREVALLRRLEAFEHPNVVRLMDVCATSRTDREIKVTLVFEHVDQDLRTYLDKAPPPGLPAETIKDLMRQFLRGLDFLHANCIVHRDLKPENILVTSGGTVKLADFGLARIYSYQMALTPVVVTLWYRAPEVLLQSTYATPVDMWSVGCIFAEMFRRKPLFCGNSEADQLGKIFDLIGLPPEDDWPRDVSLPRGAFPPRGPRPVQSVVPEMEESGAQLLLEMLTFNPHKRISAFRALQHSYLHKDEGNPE
T1 sequence (P24385 whole entry partner, species assumed): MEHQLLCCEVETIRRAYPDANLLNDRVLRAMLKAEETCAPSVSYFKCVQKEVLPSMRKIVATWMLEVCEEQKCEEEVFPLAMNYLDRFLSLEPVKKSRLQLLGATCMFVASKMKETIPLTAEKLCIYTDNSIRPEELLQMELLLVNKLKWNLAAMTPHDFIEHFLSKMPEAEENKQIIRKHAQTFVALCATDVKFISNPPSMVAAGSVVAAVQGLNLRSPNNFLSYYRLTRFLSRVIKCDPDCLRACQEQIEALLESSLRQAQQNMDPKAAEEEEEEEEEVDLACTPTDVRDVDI

CN1CCN(c2ccc(NC=C3C(=O)NC(=O)c4ccc(C=CCO)cc43)cc2)CC1 [Example 724, 6-(3-Hydroxy-propenyl)-4-{[4-(4-methyl-piperazin-1-yl)-phenylamino]-methylene}-4H-isoquinoline-1,3-dione]
IC50 (cyclin D1/cdk 4 enzyme): 3.6 µM | IC50 (BT474): 16.9 µM | IC50 (HCT-116): 5.8 µM | IC50 (LoVo): 10.4 µM | IC50 (MCF-7): 14.8 µM

CC(=O)c1ccccc1-c1ccc2c(c1)C(=CNc1ccc(CC#N)cc1)C(=O)NC2=O [Example 711, (4-{[6-(2-Acetyl-phenyl)-1,3-dioxo-2,3-dihydro-1H-isoquinolin-4-ylidenemethyl]-amino}-phenyl)-acetonitrile]
IC50 (cyclin D1/cdk 4 enzyme): 9.8 µM | IC50 (BT474): 46.7 µM | IC50 (HCT-116): > 50 µM | IC50 (LoVo): > 50 µM | IC50 (MCF-7): > 50 µM

N#CCc1ccc(NC=C2C(=O)NC(=O)c3ccc(-c4ccccc4Cl)cc32)cc1 [Example 714, (4-{[6-(2-Chloro-phenyl)-1,3-dioxo-2,3-dihydro-1H-isoquinolin-4-ylidenemethyl]-amino}-phenyl)-acetonitrile]
IC50 (cyclin D1/cdk 4 enzyme): 5.5 µM | IC50 (BT474): > 50 µM | IC50 (HCT-116): > 50 µM | IC50 (LoVo): > 50 µM | IC50 (MCF-7): 31.2 µM

COc1ccc(-c2ccc3c(c2)C(=CNc2ccc(CC#N)cc2)C(=O)NC3=O)cc1 [Example 701, (4-{[6-(4-Methoxy-phenyl)-1,3-dioxo-2,3-dihydro-1H-isoquinolin-4-ylidenemethyl]-amino}-phenyl)-acetonitrile]
IC50 (cyclin D1/cdk 4 enzyme): 6.6 µM | IC50 (BT474): 39.6 µM | IC50 (HCT-116): > 50 µM | IC50 (LoVo): > 50 µM | IC50 (MCF-7): 34.4 µM

NS(=O)(=O)c1ccc(CNC=C2C(=O)NC(=O)c3ccc(-c4cccc(Cl)c4)cc32)cc1 [Example 750, 4-({[6-(3-Chloro-phenyl)-1,3-dioxo-2,3-dihydro-1H-isoquinolin-4-ylidenemethyl]-amino}-methyl)-benzenesulfonamide]
IC50 (cyclin D1/cdk 4 enzyme): 2.5 µM | IC50 (BT474): > 50 µM | IC50 (HCT-116): 29.1 µM | IC50 (LoVo): 27.8 µM | IC50 (MCF-7): 39 µM

CN1CCN(c2ccc(NC=C3C(=O)NC(=O)c4ccc(C=Cc5ccc(C(F)(F)F)cc5)cc43)cc2)CC1 [Example 729, 4-{[4-(4-Methyl-piperazin-1-yl)-phenylamino]-methylene}-6-[2-(4-trifluoromethyl-phenyl)-vinyl]-4H-isoquinoline-1,3-dione]
IC50 (cyclin D1/cdk 4 enzyme): 10.9 µM | IC50 (BT474): 4.7 µM | IC50 (HCT-116): 1.4 µM | IC50 (LoVo): 17.9 µM | IC50 (MCF-7): 2.1 µM

CN1CCN(c2ccc(NC=C3C(=O)NC(=O)c4ccc(-c5cccc(C=CC(=O)O)c5)cc43)cc2)CC1 [Example 699, 3-[3-(4-{[4-(4-Methyl-piperazin-1-yl)-phenylamino]-methylene}-1,3-dioxo-1,2,3,4-tetrahydro-isoquinolin-6-yl)-phenyl]-acrylic acid]
IC50 (cyclin D1/cdk 4 enzyme): 2.9 µM | IC50 (BT474): > 50 µM | IC50 (HCT-116): 22.9 µM | IC50 (LoVo): > 50 µM | IC50 (MCF-7): > 50 µM

NS(=O)(=O)c1ccc(CNC=C2C(=O)NC(=O)c3ccc(C=CC4CCCCC4)cc32)cc1 [Example 656, 4-({[6-(2-Cyclohexyl-vinyl)-1,3-dioxo-2,3-dihydro-1H-isoquinolin-4-ylidenemethyl]-amino}-methyl)-benzenesulfonamide]
IC50 (cyclin D1/cdk 4 enzyme): 4.8 µM | IC50 (BT474): 13.4 µM | IC50 (HCT-116): 12.6 µM | IC50 (LoVo): 11.7 µM | IC50 (MCF-7): 12.2 µM

Cc1ccc(-c2ccc3c(c2)C(=CNc2ccc(CC#N)cc2)C(=O)NC3=O)cc1 [Example 715, {4-[(1,3-Dioxo-6-p-tolyl-2,3-dihydro-1H-isoquinolin-4-ylidenemethyl)-amino]-phenyl}-acetonitrile]
IC50 (cyclin D1/cdk 4 enzyme): 9.3 µM | IC50 (BT474): 33.4 µM | IC50 (HCT-116): 19.6 µM | IC50 (LoVo): 26 µM | IC50 (MCF-7): 24.8 µM

N#CCc1ccc(NC=C2C(=O)NC(=O)c3ccc(C=Cn4ccnc4)cc32)cc1 [Example 651, (4-{[6-(2-Imidazol-1-yl-vinyl)-1,3-dioxo-2,3-dihydro-1H-isoquinolin-4-ylidenemethyl]-amino}-phenyl)-acetonitrile]
IC50 (cyclin D1/cdk 4 enzyme): 3 µM | IC50 (BT474): > 50 µM | IC50 (HCT-116): > 50 µM | IC50 (LoVo): > 50 µM | IC50 (MCF-7): 37.1 µM

NS(=O)(=O)c1ccc(CNC=C2C(=O)NC(=O)c3ccc(-c4ccccc4Cl)cc32)cc1 [Example 751, 4-({[6-(2-Chloro-phenyl)-1,3-dioxo-2,3-dihydro-1H-isoquinolin-4-ylidenemethyl]-amino}-methyl)-benzenesulfonamide]
IC50 (cyclin D1/cdk 4 enzyme): 2.5 µM | IC50 (BT474): 7.1 µM | IC50 (HCT-116): 6.3 µM | IC50 (LoVo): 10.1 µM | IC50 (MCF-7): 8.2 µM

O=C1NC(=O)c2ccc(C=Cc3ccc4ccccc4c3)cc2C1=CNCc1ccc(O)c(O)c1 [Example 661, 4-[(3,4-Dihydroxy-benzylamino)-methylene]-6-(2-naphthalen-2-yl-vinyl)-4H-isoquinoline-1,3-dione]
IC50 (cyclin D1/cdk 4 enzyme): 5.5 µM | IC50 (BT474): 36.9 µM | IC50 (HCT-116): > 50 µM | IC50 (LoVo): > 50 µM | IC50 (MCF-7): 37.5 µM

CN1CCN(c2ccc(NC=C3C(=O)NC(=O)c4ccc(C=CCn5ccnc5)cc43)cc2)CC1 [Example 679, 6-(3-Imidazol-1-yl-propenyl)-4-{[4-(4-methyl-piperazin-1-yl)-phenylamino]-methylene}-4H-isoquinoline-1,3-dione]
IC50 (cyclin D1/cdk 4 enzyme): 4.9 µM | IC50 (BT474): 15.5 µM | IC50 (HCT-116): 6.4 µM | IC50 (LoVo): 6.9 µM | IC50 (MCF-7): 9.2 µM

CN1CCN(c2ccc(NC=C3C(=O)NC(=O)c4ccc(C=CC(O)CO)cc43)cc2)CC1 (stereo not drawn) [Example 730, 6-(3,4-Dihydroxy-but-1-enyl)-4-{[4-(4-methyl-piperazin-1-yl)-phenylamino]-methylene}-4H-isoquinoline-1,3-dione]
IC50 (cyclin D1/cdk 4 enzyme): 2.5 µM | IC50 (BT474): 20.2 µM | IC50 (HCT-116): 17.1 µM | IC50 (LoVo): 28.8 µM | IC50 (MCF-7): 40.9 µM

N#CCc1ccc(NC=C2C(=O)NC(=O)c3ccc(-c4cc5ccccc5o4)cc32)cc1 [Example 626, {4-[(6-Benzofuran-2-yl-1,3-dioxo-2,3-dihydro-1H-isoquinolin-4-ylidenemethyl)-amino]-phenyl}-acetonitrile]
IC50 (cyclin D1/cdk 4 enzyme): 3.7 µM | IC50 (BT474): > 50 µM | IC50 (HCT-116): > 50 µM | IC50 (LoVo): > 50 µM | IC50 (MCF-7): 34.1 µM

N#CCc1ccc(NC=C2C(=O)NC(=O)c3ccc(-c4ccccc4F)cc32)cc1 [Example 706, (4-{[6-(2-Fluoro-phenyl)-1,3-dioxo-2,3-dihydro-1H-isoquinolin-4-ylidenemethyl]-amino}-phenyl)-acetonitrile]
IC50 (cyclin D1/cdk 4 enzyme): 7.3 µM | IC50 (BT474): > 50 µM | IC50 (HCT-116): > 50 µM | IC50 (LoVo): > 50 µM | IC50 (MCF-7): 40.4 µM

N=C(N)c1ccc(NC=C2C(=O)NCc3cc(Cl)ccc32)cc1 [Example 857, 4-[(7-Chloro-3-oxo-2,3-dihydro-1H-isoquinolin-4-ylidenemethyl)-amino]-benzamidine]
IC50 (cyclin D1/cdk 4 enzyme): 18.5 µM | IC50 (BT474): 24 µM | IC50 (HCT-116): 43.1 µM | IC50 (LoVo): > 50 µM | IC50 (MCF-7): > 50 µM

NS(=O)(=O)c1ccc(CNC=C2C(=O)NC(=O)c3ccc(C=Cc4ccccn4)cc32)cc1 [Example 652, 4-({[1,3-Dioxo-6-(2-pyridin-2-yl-vinyl)-2,3-dihydro-1H-isoquinolin-4-ylidenemethyl]-amino}-methyl)-benzenesulfonamide]
IC50 (cyclin D1/cdk 4 enzyme): 2.4 µM | IC50 (BT474): 28.5 µM | IC50 (HCT-116): > 50 µM | IC50 (LoVo): > 50 µM | IC50 (MCF-7): 27 µM

COc1ccc(-c2ccc3c(c2)C(=CNc2ccc(N4CCN(C)CC4)cc2)C(=O)NC3=O)cc1 [Example 682, 6-(4-Methoxy-phenyl)-4-{[4-(4-methyl-piperazin-1-yl)-phenylamino]-methylene}-4H-isoquinoline-1,3-dione]
IC50 (cyclin D1/cdk 4 enzyme): 3.4 µM | IC50 (BT474): 2.5 µM | IC50 (HCT-116): 1.5 µM | IC50 (LoVo): 5.2 µM | IC50 (MCF-7): 4.4 µM

N#CCc1ccc(NC=C2C(=O)NC(=O)c3ccc(-c4ccc5[nH]ccc5c4)cc32)cc1 [Example 629, (4-{[6-(1H-Indol-5-yl)-1,3-dioxo-2,3-dihydro-1H-isoquinolin-4-ylidenemethyl]-amino}-phenyl)-acetonitrile]
IC50 (cyclin D1/cdk 4 enzyme): 5.5 µM | IC50 (BT474): > 50 µM | IC50 (HCT-116): > 50 µM | IC50 (LoVo): > 50 µM | IC50 (MCF-7): 50 µM

NS(=O)(=O)c1ccc(CNC=C2C(=O)NC(=O)c3ccc(-c4csc5ccccc45)cc32)cc1 [Example 636, 4-{[(6-Benzo[b]thiophen-3-yl-1,3-dioxo-2,3-dihydro-1H-isoquinolin-4-ylidenemethyl)-amino]-methyl}-benzenesulfonamide]
IC50 (cyclin D1/cdk 4 enzyme): 3.4 µM | IC50 (BT474): 39.7 µM | IC50 (HCT-116): 31.2 µM | IC50 (LoVo): 15.8 µM | IC50 (MCF-7): 18.4 µM
